Several values for one entry are separate records, joined by “and”; a condition that tells them apart may be missing. Identical values can stand only once.
Assays:
[1] = molecular target: T1, human recombinant adrenergic α2B receptor (Homo sapiens, UniProt P18089); assay: Radioligand binding, adrenergic α2B ([3H]Rauwolscine); conditions: for Percentage inhibition of ligand binding, Adrenergic α2B (0.03 μM): repeat datapoints each shown; for Percentage inhibition of ligand binding, Adrenergic α2B (0.03 μM) / Percentage inhibition of ligand binding, Adrenergic α2B: 0.03 µM
T1 construct: expressed in transfected cells; host or cells: CHO-K1
T1 sequence (P18089 1-450): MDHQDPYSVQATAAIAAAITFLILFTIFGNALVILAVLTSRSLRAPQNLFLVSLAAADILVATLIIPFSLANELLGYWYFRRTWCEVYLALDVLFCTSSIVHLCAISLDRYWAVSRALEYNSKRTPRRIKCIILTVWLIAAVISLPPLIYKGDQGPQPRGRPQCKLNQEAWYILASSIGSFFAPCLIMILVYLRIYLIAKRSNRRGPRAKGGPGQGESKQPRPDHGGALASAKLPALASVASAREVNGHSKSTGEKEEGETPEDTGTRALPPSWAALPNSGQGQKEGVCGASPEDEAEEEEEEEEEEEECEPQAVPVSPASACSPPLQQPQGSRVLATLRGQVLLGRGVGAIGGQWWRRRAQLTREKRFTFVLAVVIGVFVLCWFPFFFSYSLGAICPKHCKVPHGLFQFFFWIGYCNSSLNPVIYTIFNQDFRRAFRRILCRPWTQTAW
Method: To evaluate in radioligand binding assays the activity of compounds of the invention, human recombinant adrenergic α2B receptor expressed in Chinese hamster ovary (CHO) K1 cells (Uhlen, S. et al, Eur. J. Pharmacol. 343(1):93, 1998) in a modified Tris-HCl buffer (50 mM Tris-HCl, pH 7.4, 12.5 mM MgCl2, 1 mM EDTA, 0.2% BSA) was used. Compounds of the invention were incubated with 2.5 nM [3H]Rauwolscine for 60 min at 25° C. Non-specific binding was estimated in the presence of 10 μM Prazosin. Receptor proteins were filtered and washed, the filters were then counted to determine [3H]Rauwolscine specifically bound. […] Compounds of the invention were tested in this biochemical assay and percent inhibition of specific binding was determined. Biochemical assay results are presented as the percent inhibition of specific binding in Table B1.

[2] = molecular target: T2, human recombinant adrenergic α2A receptor (Homo sapiens, UniProt P08913); assay: Radioligand binding, adrenergic α2A ([3H]MK-912); conditions: [3H]MK-912
T2 construct: expressed in transfected cells; host or cells: insect Sf9 cells
T2 sequence (P08913 1-465): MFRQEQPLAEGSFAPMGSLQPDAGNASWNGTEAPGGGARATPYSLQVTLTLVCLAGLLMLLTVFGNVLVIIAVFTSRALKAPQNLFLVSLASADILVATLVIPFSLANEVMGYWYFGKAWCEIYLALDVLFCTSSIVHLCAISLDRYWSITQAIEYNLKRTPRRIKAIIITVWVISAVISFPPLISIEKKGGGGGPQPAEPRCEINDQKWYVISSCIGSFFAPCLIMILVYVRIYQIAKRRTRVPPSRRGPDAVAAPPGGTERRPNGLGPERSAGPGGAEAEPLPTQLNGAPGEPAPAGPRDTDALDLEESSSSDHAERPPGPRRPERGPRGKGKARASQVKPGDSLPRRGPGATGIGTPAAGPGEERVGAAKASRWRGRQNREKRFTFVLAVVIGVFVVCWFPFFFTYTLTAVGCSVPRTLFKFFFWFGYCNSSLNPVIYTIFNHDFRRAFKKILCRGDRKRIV
Method in brief: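 Sf9 membranes, 1 nM [3H]MK-912, 60 min, 25 °C, Tris-HCl pH 7.4/MgCl2/EDTA buffer. NSB: 10 μM WB-4101. Filtration, counting; % inhibition of specific binding.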

[3] = molecular target: T3, rat adrenergic α1B receptor (Rattus norvegicus, UniProt P15823); assay: Radioligand binding, adrenergic α1B ([3H]Prazosin); parameters: species or system Wistar Rat
T3 construct: rat adrenergic α1B receptor obtained from Wistar Rat liver; from tissue; host or cells: Wistar rat liver
T3 sequence (P15823 1-515): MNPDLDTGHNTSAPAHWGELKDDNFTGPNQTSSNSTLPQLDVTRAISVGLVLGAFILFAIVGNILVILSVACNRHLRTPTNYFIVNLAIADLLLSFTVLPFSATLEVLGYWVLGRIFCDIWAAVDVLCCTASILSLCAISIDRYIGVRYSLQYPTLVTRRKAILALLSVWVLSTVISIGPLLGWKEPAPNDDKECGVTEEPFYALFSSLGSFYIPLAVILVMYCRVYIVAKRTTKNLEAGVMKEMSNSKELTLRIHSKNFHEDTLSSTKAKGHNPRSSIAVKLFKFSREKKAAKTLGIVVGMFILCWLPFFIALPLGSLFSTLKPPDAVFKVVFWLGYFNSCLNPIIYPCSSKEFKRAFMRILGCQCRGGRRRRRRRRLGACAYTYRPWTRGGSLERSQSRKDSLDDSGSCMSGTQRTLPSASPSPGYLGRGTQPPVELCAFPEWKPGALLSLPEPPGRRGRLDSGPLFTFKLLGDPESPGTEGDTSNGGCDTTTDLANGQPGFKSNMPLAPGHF
Method in brief: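 Specific binding, taken as total minus that remaining with 10 μM phentolamine, is measured after filtration and counting. Rat liver receptor preparation and 0.25 nM [3H]prazosin are incubated with compound in 50 mM Tris-HCl (pH 7.4, 0.5 mM EDTA) at 25° C for 60 min. Activity is reported as percent inhibition.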

[4] = compound at 0.1 μM, repeat datapoints each shown, 0.1 µM
[5] = compound at 0.1 μM, repeat datapoints each shown
[6] = compound at 0.03 μM, repeat datapoints each shown

SMILES	Percentage inhibition of ligand binding, Adrenergic α2B (0.03 μM) ([1]; compound at 0.03 μM)	Percentage inhibition of ligand binding, Adrenergic α2A (0.1 μM) [2, 4]	Percentage inhibition of ligand binding, Adrenergic α1B (0.1 μM) [3, 4]	also measured
Cc1ccc2c(c1)c1c(n2CC(O)c2ccncc2)C(C)N2CCC1C2 (single isomer, unassigned) [38b]	17%	−1%	20%	
Cc1ccc2c(c1)c1c(n2CC(C)(O)c2cccnc2)CCNC1 (single isomer, unassigned) [24a]	63%	8%		Percentage inhibition of ligand binding, Adrenergic α1B (0.1 μM) [3, 5]: 8%
OC(Cn1c2c(c3cccnc31)CN1CCCC1C2)c1ccncc1 (single isomer, unassigned) [37a]	2%	18%	−5%	
OC(Cn1c2c(c3cccnc31)CN1CCCC1C2)c1ccncc1 (single isomer, unassigned) [37d]	−3%	8%	2%	
Cc1ccc2c(c1)c1c(n2CC(C)(OC(=O)C(C)C)c2cccnc2)CCN(C)C1 (single isomer, unassigned) [146b]				Percentage inhibition of ligand binding, Adrenergic α2B ([1]; 0.03 μM compound): 63%; Percentage inhibition of ligand binding, Adrenergic α2A ([2]; 0.1 μM compound, 0.1 µM): 21%; Percentage inhibition of ligand binding, Adrenergic α1B ([3]; 0.1 μM compound, 0.1 µM): 11%
Cc1ccc2c(c1)c1c(n2CC(N)c2ccncc2)CC2CCC1N2C (centres unmarked) [compound 155]				inhibition at 0.03 µM ([1]; 0.03 μM compound, read-out: Percentage inhibition of ligand binding, Adrenergic α2B): 36%; inhibition at 0.1 µM ([2]; 0.1 μM compound, read-out: Percentage inhibition of ligand binding, Adrenergic α2A): 14%; inhibition at 0.1 µM ([3]; 0.1 μM compound, read-out: Percentage inhibition of ligand binding, Adrenergic α1B): 15%
Cc1cnc2c(c1)c1c(n2CC(C)(O)c2cccnc2)CCN(C)C1 (single isomer, unassigned) [II-99b]				Percentage inhibition of ligand binding, Adrenergic α2B ([1]; compound at 0.03 μM): 7%; Percentage inhibition of ligand binding, Adrenergic α2A ([2]; compound at 0.1 μM, 0.1 µM): 16%; Percentage inhibition of ligand binding, Adrenergic α1B ([3]; compound at 0.1 μM, 0.1 µM): 5%
Cc1ccc2c(c1)c1c(n2CC(C)(O)c2cccnc2)CCNC1 (single isomer, unassigned) [24b]	29%	15%		Percentage inhibition of ligand binding, Adrenergic α1B (0.1 μM) [3, 5]: 8%
OCCN1CCc2c(c3cc(Cl)ccc3n2CC(O)c2cccnc2)C1 (single isomer, unassigned) [II-94b]				Percentage inhibition of ligand binding, Adrenergic α2B ([1]; compound at 0.03 μM): 24%; Percentage inhibition of ligand binding, Adrenergic α2A ([2]; compound at 0.1 μM, 0.1 µM): −5%; Percentage inhibition of ligand binding, Adrenergic α1B ([3]; compound at 0.1 μM): 7%
Cc1ccc2c(c1)c1c(n2C(C)C(O)c2ccncc2)CCN(C)C1 (centres unmarked) [127b]				Percentage inhibition of ligand binding, Adrenergic α2B ([1]; 0.03 μM compound): 1%; Percentage inhibition of ligand binding, Adrenergic α2A ([2]; 0.1 μM compound): 4%; Percentage inhibition of ligand binding, Adrenergic α1B ([3]; 0.1 μM compound): 13%
OC(Cn1c2c(c3cccnc31)CN1CCCC1C2)c1ccncc1 (single isomer, unassigned) [37c]	0%	6%	2%	
Cc1ccc2c(c1)c1c(n2CC(C)(O)c2ccc[n+]([O-])c2)CCN(C)C1 (single isomer, unassigned) [56b]	28%	17%	6%	
Cc1ccc2c(c1)c1c(n2CC(O)c2ccncc2)C(C)N2CCC1C2 (single isomer, unassigned) [38a]	35%	14%	11%	

Further lines, with some results ahead:

Percentage inhibition of ligand binding, Adrenergic α2B (0.03 μM) ([1]; compound at 0.03 μM)	Percentage inhibition of ligand binding, Adrenergic α2A (0.1 μM) [2, 4]	Percentage inhibition of ligand binding, Adrenergic α1B (0.1 μM) [3, 4]	SMILES	also measured
10%	11%	4%	Cc1ccc2c(c1)c1c(n2CC(O)c2cc[n+]([O-])cc2)CCN(C)C1 (single isomer, unassigned) [69a]	
14%	−9%	43%	CN1CCc2c(n(CC(O)c3ccncc3)c3ccc(Cl)cc23)C1 (single isomer, unassigned) [41a]	
54%	−4%	23%	CN1CCc2c(c3cccc(Cl)c3n2CC(O)c2ccncc2)C1 (single isomer, unassigned) [45a]	
92%	21%	78%	Cc1ccc2c(c1)c1c(n2CC(O)c2ccncc2)CC2CCCN2C1 (single isomer, unassigned) [76a]	
22%	15%	39%	Cc1ccc2c(c1)c1c(n2CC(O)c2ccncc2)CN(C)CC1 (centres unmarked) [8a]	
34%	18%	71%	Cc1ccc2c(c1)c1c(n2CC(O)c2ccncc2)CC2CCCN2C1 (single isomer, unassigned) [76b]	
36%	14%	3%	CN1CCc2c(c3cc(Cl)ccc3n2CC(C)(O)c2cccnc2)C1 (centres unmarked) [31b]	
93% and 97%	19% and 27%	25% and 28%	CN1CCc2c(c3cc(Cl)ccc3n2CC(C)(O)c2cccnc2)C1 (single isomer, unassigned) [31a]	Percentage inhibition of ligand binding, Adrenergic α2A (0.03 μM) [2, 6]: 11%; Percentage inhibition of ligand binding, Adrenergic α1B (0.03 μM) [3, 6]: 16%
14%	−6%	25%	Cc1ccc2c(c1)c1c(n2CC(C)(O)c2cccnc2)CN(C)CC1 (centres unmarked) [14b, 1-(2,6-dimethyl-1,2,3,4-tetrahydro-3-carbolin-9-yl)-2-pyridin-3-yl-propan-2-ol]	

Reference: patent US9550782B2, “Compounds and methods for treating diabetes” (Medivation Technologies, Inc., priority 2011, dated 2017)
